Data taken from ChEMBL document CHEMBL1137640, “In vitro antimycobacterial spectrum of a diarylquinoline ATP synthase inhibitor” (2007).
Values after ≈ are worked out from the molar mass of the structure shown.

System: Mycobacterium tuberculosis
Assay: Antimicrobial activity against multidrug-resistant Mycobacterium tuberculosis isolate after 2 to 4 weeks by two fold dilution method
Assay type: functional

COc1nc2ccc(Br)cc2cc1[C@@H](c1ccccc1)[C@@](O)(CCN(C)C)c1cccc2ccccc12 [BEDAQUILINE]
MIC: 0.004 µg/mL (≈ 0.0072 µM)
MIC50: 0.03 µg/mL (≈ 0.054 µM)
MIC90: 0.06 µg/mL (≈ 0.108 µM)
